The subject of data set [1] is human pancreatic carcinoma cell line panc-1. Briefly: In vitro tumor cell proliferation inhibition (MTT): panc-1. The format is cell-based. The text has this: (§1) The purpose of the experiment was to test the inhibition activity of the compounds of the invention for in vitro human tumor cell proliferation by the methyl thiazolyl tetrazolium (MTT) colorimetry.
(§2) Main reagents: RPMI-1640, fetal bovine serum, pancreatin, etc. were purchased from Gibco BRL Company (Invitrogen Corporation, USA) and IMDM medium that was purchased from American Type Culture Collection (ATCC). Methyl thiazolyl tetrazolium (MTT) and dimethyl sulfoxide (DMSO) were products from Sigma Company (USA). Pyrazolopyrimidine derivatives were composed by the inventor. During in vitro experiment, 100% DMSO was prepared into 10 mM storage solution, the solution was stored in a refrigerator at −20° C. for future use, and was diluted to the required concentration with complete culture solution before use.
(§3) Cell line and culture: Human leukemia cell line MV4-11, Jurkat, K562, human thyrophyma cell line TT, human gastric carcinoma cell line MKN-45, human malignant melanoma cell lines A375 and A875, human pancreatic carcinoma cell line panc-1, human cervical carcinoma cell line HELA, human colorectal carcinoma cell line HCT116, etc. were purchased from American type culture collection and were preserved by this laboratory. All leukemia cell lines (except MV4-11), gastric carcinoma cell lines and thyrophyma cell lines were cultured in RPMI-1640 complete medium containing 10% fetal bovine serum, 100 U/mL penicillin and 100 μg/mL streptomycin at 37° C. in 5% CO2. The remaining cell lines were cultured in DMEM complete medium containing 10% fetal bovine serum (containing 20% MV4-11 cell), 100 U/mL penicillin and 100 µg/mL streptomycin at 37° C. in 5% CO2.
(§4) Cell suspension with cell concentration of 1-2×10^4/mL was adjusted with the complete cell medium and inoculated in a 96-well plate, with each well filled with 200 μl cell suspension that was cultured overnight. On the next day, supernatant was sucked and abandoned (supernatant was sucked upon centrifugation of suspension cells), and then cells were processed with test compounds at gradient concentrations respectively. Meanwhile, a negative control group free from drug and a solvent control group with equal volume were set, and the DMSO concentration was 0.1%. Each dose group was provided with three wells and cultured at 37° C. in 5% CO2. After 72 hours, 20 μl 5 mg/mL MTT reagent was added to each well, and cultured for another 2 to 4 hours, the supernatant was abandoned; 150 μL DMSO was added to each well again, vibrated and mixed evenly for 15 minutes; the absorbance (A) values (proportional to living cell amount) were determined with a microplate reader (λ=570 nm) and averaged. […] Experiment was repeated for 3 times at least. Experimental data were expressed with means, data statistics were tested by t, and P<0.05 means that difference has a statistical significance. The cell proliferation inhibition effects of all compounds as follows are expressed by IC50 or inhibition rate.

The test system of data set [2] is human malignant melanoma cell line A875. The data set is described as follows: In vitro tumor cell proliferation inhibition (MTT): A875. Format: cell-based.
Excerpt: as §1, §2, §3, §4

Data set [3] relates to human colorectal carcinoma cell line HCT116. The data set is described as follows: In vitro tumor cell proliferation inhibition (MTT): HCT116. The format is cell-based.
Excerpt: as §1, §2, §3, §4

Data set [4] concerns human leukemia cell line Jurkat. Briefly: In vitro tumor cell proliferation inhibition (MTT): Jurkat. The following applies: 72 hours. The format is cell-based.
Excerpt: as §1, §2, §3, §4

The subject of data set [5] is human gastric carcinoma cell line MKN-45. Briefly: In vitro tumor cell proliferation inhibition (MTT): MKN-45. Format: cell-based.
Excerpt: as §1, §2, §3, §4

Data set [6] has as its system human malignant melanoma cell line A375. The data set is described as follows: In vitro tumor cell proliferation inhibition (MTT): A375. The format is cell-based.
Excerpt: as §1, §2, §3, §4

In data set [7] the test system is human leukemia cell line MV4-11. The data set is described as follows: In vitro tumor cell proliferation inhibition (MTT): MV4-11. Format: cell-based.
Excerpt: as §1, §2, §3, §4

The test system of data set [8] is human thyrophyma cell line TT. Briefly: In vitro tumor cell proliferation inhibition (MTT): TT. The format is cell-based.
Excerpt: as §1, §2, §3, §4

The test system of data set [9] is human cervical carcinoma cell line HELA. Briefly: In vitro tumor cell proliferation inhibition (MTT): HELA. The following applies: 72 hours. The format is cell-based.
Excerpt: as §1, §2, §3, §4

The test system of data set [10] is human leukemia cell line K562. Briefly: In vitro tumor cell proliferation inhibition (MTT): K562. The format is cell-based.
Excerpt: as §1, §2, §3, §4

The test system of data set [11] is human acute myeloid leukemia cell line MV4-11. The data set is described as follows: In vivo anti-leukemia tumor experiment, NOD-SCID mice-subcutaneous MV4-11 model, tumors more than 2000 mm^3. The source says:
The cell line used was human acute myeloid leukemia cell line MV4-11, with anti-leukemia drug Quizartinib (AC220) as a positive control.

Where [12] appears, read: Homo sapiens, HCT-116, 72 hours.

Each structure is given as a SMILES string. Where two headings read alike, the source gives them in different places.

As for `Cn1nc(C(C)(C)C)cc1NC(=O)Nc1ccc(Oc2ncnc3[nH]ncc23)c(Cl)c1` [4a-32, 1-(4-((1H-pyrazolopyrimidine-4-yl)oxy)-3-chlorphenyl)-3-(3-tert-butyl-1-methylpyrazol-5-yl)urea], the IC50 was 3 to 10 µM in data set [1] (Homo sapiens, PANC-1, 72 hours); 3 to 10 µM in data set [2] (Homo sapiens, A875, 72 hours); less than 50 µM in [3] (setting [12]); 3 to 10 µM in data set [4] (Homo sapiens, Jurkat); 3 to 10 µM in [5] (Homo sapiens, MKN-45, 72 hours); 3 to 10 µM in data set [6] (Homo sapiens, A-375, 72 hours). The IC50 in data set [7] (Homo sapiens, MV4-11, 72 h) is 1 nM.
For `O=C(Nc1cccc(Oc2ncnc3[nH]ncc23)c1)Nc1cccc(C(F)(F)F)c1` [4a-41], the IC50 in data set [8] (72 hours) is less than 50 µM; in data set [9], less than 50 µM; in data set [1] (72 hours) it was less than 50 µM; in data set [10] (72 hours), less than 50 µM; in data set [2] (72 hours), less than 50 µM; in [3] (72 hours, read-out: Proliferation inhibition activity (IC50) HCT 116), less than 50 µM. Moreover, the IC50 in data set [4] was less than 50 µM; in [5] (72 hours) it was less than 50 µM; in data set [6] (72 hours) it was less than 50 µM; in data set [7] (72 hours), 7820 nM.
As to `O=C(Nc1ccc(C(F)(F)F)cc1)Nc1cccc(Oc2ncnc3[nH]ncc23)c1` [4a-43], the IC50 in data set [8] (Homo sapiens, 72 h) was 4.57 µM; in data set [9] (Homo sapiens, HeLa), less than 50 µM; in data set [1] (Homo sapiens, PANC-1, 72 hours), less than 50 µM; in [10] (Homo sapiens, K562, 72 hours), less than 50 µM; in [2] (Homo sapiens, A875, 72 hours), less than 50 µM; in data set [3] (setting [12]) it was less than 50 µM. Moreover, the IC50 in data set [4] (Homo sapiens, Jurkat) is less than 50 µM; in [5] (Homo sapiens, MKN-45, 72 hours) it was less than 50 µM; in data set [6] (Homo sapiens, A-375, 72 hours), less than 50 µM; in [7] (Homo sapiens, MV4-11, 72 h), less than 5000 nM.
As for `CC(C)(C)c1cc(NC(=O)Nc2ccc(Oc3ncnc4[nH]ncc34)c(Cl)c2)no1` [4a-46, 1-(4-((1H-pyrazolopyrimidine-4-yl)oxy)-3-chlorphenyl)-3-(5-tert-butylisoxazol-3-yl)urea], the IC50 in data set [8] (Homo sapiens, 72 h) was 1 to 3 µM; in [9] (Homo sapiens, HeLa), less than 50 µM; in data set [1] (Homo sapiens, PANC-1, 72 hours) it was 1 to 3 µM; in data set [10] (Homo sapiens, K562, 72 hours), 3 to 10 µM; in data set [2] (Homo sapiens, A875, 72 hours), less than 10 µM; in [3] (setting [12]) it was less than 10 µM. The IC50 in data set [4] (Homo sapiens, Jurkat) is 1 to 3 µM; in data set [5] (Homo sapiens, MKN-45, 72 hours), less than 50 µM; in [6] (Homo sapiens, A-375, 72 hours), less than 10 µM; in data set [7] (Homo sapiens, MV4-11, 72 h), 3 nM.
As to `O=C(Nc1ccc(Cl)c(C(F)(F)F)c1)Nc1ccc(Oc2ncnc3[nH]ncc23)cc1Cl` [4a-55], the IC50 is less than 50 µM in data set [1] (Homo sapiens, PANC-1, 72 hours); less than 50 µM in data set [10] (Homo sapiens, K562, 72 hours); less than 50 µM in [3] (setting [12]); less than 50 µM in [4] (Homo sapiens, Jurkat); 54.2 nM in data set [7] (Homo sapiens, MV4-11, 72 h).
Consider `CC(C)(C)c1cc(NC(=O)Nc2ccc(Oc3ncnc4[nH]ncc34)cc2)n(C(=O)O)n1` [4a-58], for which the IC50 is less than 50 µM in [9] (Homo sapiens, HeLa) and 0.0146 nM in data set [7] (Homo sapiens, MV4-11, 72 h). Moreover, the “weight loss, rash, diarrhea and other adverse reactions during administration” value in data set [11] (NOD-SCID mice, 3 and 10 mg/kg q.d. oral) was “not found”. Further, the “in vivo tumor growth inhibition effect” value in data set [11] (daily dose of 3 mg/kg or above, oral, MV4-11 tumors more than 2000 mm^3 at start) was “completely inhibit tumor growth”.
Take `CC(C)(C)c1cc(NC(=O)Nc2ccc(Oc3ncnc4[nH]ncc34)c(F)c2)n(C(=O)O)n1` [4a-59]: the IC50 in data set [9] (Homo sapiens, HeLa) was less than 50 µM; in data set [7] (Homo sapiens, MV4-11, 72 h), 0.00984 nM.
Take `CN(C)CCCn1ncc2c(Oc3ccc(NC(=O)Nc4cc(C(C)(C)C)on4)cc3)ncnc21` [5a-6]: the IC50 in data set [8] (Homo sapiens, 72 h) was 4.13 µM; in data set [9] (Homo sapiens, HeLa) it was less than 50 µM; in data set [4] (Homo sapiens, Jurkat), less than 50 µM; in [5] (Homo sapiens, MKN-45, 72 hours) it was less than 50 µM; in data set [7] (Homo sapiens, MV4-11, 72 h) it was 28 nM.
On to `CC(C)n1ncc2c(Oc3ccc(NC(=O)Nc4cc(C(C)(C)C)[nH]n4)cc3)ncnc21` [5a-7, 1-(5-tert-butyl-1H-pyrazol-3-yl)-3-(4-(1-isopropyl-(1H-pyrazolopyrimidine-4-yl)oxy)phenyl)urea], for which the IC50 in data set [8] (Homo sapiens, 72 h) was less than 50 µM; in [1] (Homo sapiens, PANC-1, 72 hours), less than 50 µM; in data set [2] (Homo sapiens, A875, 72 hours), less than 50 µM; in [4] (Homo sapiens, Jurkat) it was less than 50 µM; in data set [5] (Homo sapiens, MKN-45, 72 hours), less than 50 µM; in data set [6] (Homo sapiens, A-375, 72 hours) it was less than 50 µM.

The values above are taken from patent US9828375B2, “4-position substituted pyrazolopyrimidine derivative, and use thereof in drug preparation” (Guangxi Wuzhou Pharmaceuticals (Group) Co., Ltd., priority 2012, dated 2017).
